These are literature values, as cited in patent publication US20170128401A1, “DIETARY COMPOSITION FOR IMPROVED PERFORMANCE” (priority 2015, published 2017).

For series [1], the system named is healthy adults. As to conditions: in vivo.
The test system of series [2] is healthy adults. As to conditions: in vivo. This is another data set of the same source.
The next series has as its system subjects. As to conditions: 400 mg of phosphatidylserine.
For series [3] the following is noted: 750 mg dose; 85% VO2 max.

Consider `O=C(O[C@@H]1Cc2c(O)cc(O)cc2O[C@@H]1c1cc(O)c(O)c(O)c1)c1cc(O)c(O)c(O)c1` [EGCG, epigallocatechin gallate], for which, in the series on healthy adults [1], the carbohydrate absorption result is listed as “significantly decreased”. The VO2max result in the series with healthy adults [2] is recorded as “increased”.

As for phosphatidylserine, in the series with subjects, the “decrease in wrong answers (test accuracy)” value is reported as 39%, the “increase in correct answers (test accuracy)” value is given as 13% and the “increase speed of calculations” value was 20%. The “increase time to exhaustion in anaerobic events” value in series [3] was 29%+/−8.
